In US5104870A, “Heterocyclic pharmaceutical compounds and use” (Burroughs Wellcome Co., priority 1989, dated 1992) one finds ED50 data, which are given here for five compounds.

The structures appear in SMILES notation. Where a name gives a salt, the structure may show the parent alone.

The term ED50 denotes the dose that gives a 50% effect, or the effect in half of the subjects.

The test deals with tetrabenazine-induced sedation. Put plainly: Antitetrabenazine test (prevention of tetrabenazine-induced sedation). The class given is in vivo. The settings on record: Mus musculus, ip; CDl male mice; i.p. as hydrochloride salt in saline 30 min before tetrabenazine hydrochloride 35 mg/kg i.p.; exploratory behavior scored 30 min later; read-out: ED50 (amount of the test compound required to reverse the tetrabenazine effects in 50 percent of the animals tested). The procedure: Prevention on of tetrabenazine-induced sedation was measured using a modification of the method of Vernier et al., First Hahnemann Symposium on Psychosomatic Medicine, ed. Nodim and Moyer, pub Lea and Febiger, Philadelphia. 1962.
Mice, groups of 12 CDl males each, were injected intraperitoneally (i.p.) with the hydrochloride salt of a compound of formula (I) in physiological saline solution or with physiological saline solution alone. Thirty minutes later each of the mice was injected (i.p.. 35 mg/kg) with a solution of tetrabenazine hydrochloride. Thirty minutes after the injection of tetrabenazine each mouse was examined for its level of exploratory behavior which was scored on a modification of the arbitrary scale defined by Vernier et al The result reported in Table I as the ED50 value is the amount of the test compound required to reverse the tetrabenazine effects in 50 percent of the animals tested.
Turning to `C[C@@H]1CO[C@@](O)(c2cc(F)cc(F)c2)[C@H](C)N1.Cl` [Example 2, (2S,3S,5R)-2-(3,5-difluorophenyl)-3,5-dimethyl-2-morpholinol hydrochloride], the ED50 turned out to be 5 mg/kg.
Under `CCN1[C@H](C)CO[C@@](O)(c2cc(F)cc(F)c2)[C@@H]1C` [Example 5, (2S,3S,5R)-2-(3,5-Difluorophenyl)-4-ethyl-3,5-dimethyl-2-morpholinol hydrochloride, monohydrate] stands 3 mg/kg; under `C[C@H]1CO[C@](O)(c2cc(F)cc(F)c2)[C@@H](C)N1.Cl` (relative stereo) [Example 1, (+-)-(2R*,3R*,5S*)-2-(3,5-Difluorophenyl)-3,5-dimethyl-2-morpholinol hydrochloride], 2 mg/kg; under `C[C@@H]1CO[C@@](O)(c2cc(F)cc(F)c2)[C@H](C)N1C` [Example 3, (2S,3S,5R)-2-(3.5.Difluorophenyl)-3,4,5,trimethyl-2-morpholinol hydrochloride, one-quarter hydrate], 0.6 mg/kg.
Regarding `C[C@@H]1CO[C@@](O)(c2cc(F)cc(F)c2)[C@H](C)N1C` (relative stereo) [Example 4, (+-)-(2R*,3R*,5S*)-2-(3,5-Difluorophenyl)-3,4,5,trimethyl-2-morpholinol hydrochloride], the ED50 was 3 mg/kg.
